Test results reported in patent publication US9624247B2, “Pyrazolo-pyrrolidin-4-one derivatives as bet inhibitors and their use in the treatment of disease” (NOVARTIS AG, priority 2013, dated 2017).

Columns and labels:
BRD3 (His-Brd3(20-477)) = BRD3 (His-Brd3(20-477)) (Homo sapiens (Human), UniProt Q15059); experiment: TR-FRET in-vitro binding assay for BRD3; conditions: acetyl-histone H4 peptide
Procedure: (§1) TR-FRET In-Vitro Binding Assays for BRD2, BRD3, and BRD4:
All assays were performed in 384 well microtiter plates. Each assay plate contained 8-point serial dilutions for 40 test compounds, plus 16 high- and 16 low controls. Liquid handling and incubation steps were done on an Innovadyne Nanodrop Express equipped with a robotic arm (Thermo CatX, Perkin Elmer/Caliper Twister II) and an incubator (Liconic STX40, Thermo Cytomat 2C450). The assay plates were prepared by addition of 50 nl per well of compound solution in 90% DMSO HummingBird nanodispenser (Zinsser Analytic). […] Reactions were incubated at 30° C. for 35 minutes. […] After 35 minutes incubation at 30° C., plates were measured in a Perkin Elmer EnVision multilabel reader.
(§2) Preparation of Compound Dilutions
(§3) Test compounds were dissolved in DMSO (10 mM) and transferred into 1.4 mL flat bottom or V-shaped Matrix tubes carrying a unique 2D matrix. The stock solutions were stored at […] if not used immediately. For the test procedure the vials were defrosted and identified by a scanner whereby a working sheet was generated that guided the subsequent working steps. Compound dilutions were made in 96 well plates. This format enabled the assay of maximally 40 individual test compounds at 8 concentrations (single points) including 4 reference compounds, if desired (known BET inhibitors from the prior art, for this and other assays of the type disclosed herein). The dilution protocol included the production of “pre-dilution plates”, “master plates” and “assay plates”.
(§4) Pre-dilution plates: 96 polypropylene well plates were used as pre-dilution plates. A total of 4 pre-dilution plates were prepared including 10 test compounds each on the plate positions A1-A10, one standard compound at A11 and one DMSO control at A12. All dilution steps were done on a HamiltonSTAR robot.
(§5) These plates were used directly for the assay which was performed in a total volume of 13.55 μL.

K-562 cells = experiment: Cell growth inhibition assay (CellTiter-Glo), K-562; format: cell-based, human; conditions: K-562, 4 days; for GI50: Homo sapiens, K562, 96 h, half-maximal growth inhibition; for K-562 TGI: total growth inhibition
Procedure: (§6) Cell Growth Inhibition Assay
(§7) The human leukemia cell lines MV-4-11, THP-1 and K-562 were employed to characterize the effect of BET inhibitors on cellular proliferation and viability. Cells were obtained from the American Type Culture Collection (ATCC) and cultured at 37° C. in a humidified 5% CO2 incubator in the following media: MV-4-11: DMEM high glucose (Animed #1-26F01-I), 10% FCS (Animed #2-01F26-I), 4 mM L-Glutamine (Animed #5-10K50), 1 mM Sodium Pyruvate (Animed #G03625P), lx Penicillin-Streptomycin (Animed #F12478P); K-562: Iscove's MEM (Animed #1-28F16-I), 10% FCS (Animed #2-01F26-I), 4 mM L-Glutamine (Animed #5-10K50), 1× Penicillin-Streptomycin (Animed #F12478P); THP-1: RPMI-1640 (Animed #1-41F01-I), 10% FCS (Animed #2-01F26-I), 2 mM L-Glutamine (Animed #5-10K50), 10 mM HEPES (Animed #5-31F100), 1 mM Sodium Pyruvate (Animed #G03625P), 1× Penicillin-Streptomycin (Animed #F12478P). The AML lines MV-4-11 and THP-1 are very sensitive to BET inhibitors and show massive cell death upon BET inhibition (Zuber et al., Nature, 478 (2011), 524-8). Compound-mediated suppression of cell proliferation/viability was assessed by quantification of cellular ATP levels using the CellTiter-Glo (CTG) reagent (Promega). Briefly, cells were seeded in 20 μl fresh medium into 384-well plates, followed by addition of 5 μl medium containing compound dilutions at 5-fold their final intended concentration. Dose-response effects were assessed by 3-fold serial dilutions of the test compound, starting at 10 μM. Following incubation of the cells for 4 days at 37° C. and 5% CO2, the effect of inhibitors on cell viability was quantified following addition of 20 μl CTG and luminescence quantification (integration time: 100 ms) as per vendor manual, using a correspondingly equipped Tecan M200 multi-mode platereader (TECAN, Switzerland). For data analysis, the assay background value determined in wells containing medium, but no cells, was subtracted from all data points. To enable differentiation of cytotoxic from cytostatic compounds, the number of viable cells is assessed relative to that observed at the time of compound addition using a separate cell plate (day 0). The effect of a particular test compound concentration on cell proliferation/viability is expressed as percentage of the background- and day 0-corrected luminescence reading obtained for cells treated with vehicle only (DMSO, 0.1% final concentration), which is set as 100%, whereas that luminescence reading for wells containing medium is set as −100%. Compound concentrations leading to half-maximal (IC50) and total growth inhibition (TGI) were determined using standard four parameter curve fitting.

BRD2 (His-Brd2(60-472)) = BRD2 (His-Brd2(60-472)) (Homo sapiens (Human), UniProt P25440); experiment: TR-FRET in-vitro binding assay for BRD2; conditions: acetyl-histone H4 peptide
Chain of BRD2 (His-Brd2(60-472)) (P25440 60-472): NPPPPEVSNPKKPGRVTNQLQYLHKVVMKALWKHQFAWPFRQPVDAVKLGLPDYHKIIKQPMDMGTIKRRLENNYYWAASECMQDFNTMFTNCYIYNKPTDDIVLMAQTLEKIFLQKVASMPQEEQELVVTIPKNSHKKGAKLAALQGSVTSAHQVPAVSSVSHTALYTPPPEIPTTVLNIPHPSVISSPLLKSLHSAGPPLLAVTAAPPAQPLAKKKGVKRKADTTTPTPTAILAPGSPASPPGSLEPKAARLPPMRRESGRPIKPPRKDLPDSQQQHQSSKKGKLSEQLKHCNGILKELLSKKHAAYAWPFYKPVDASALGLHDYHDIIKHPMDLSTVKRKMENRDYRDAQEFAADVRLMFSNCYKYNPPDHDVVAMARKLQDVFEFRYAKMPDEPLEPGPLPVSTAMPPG
Procedure: as §1
(§8) All assays were performed in 384 well microtiter plates. Each assay plate contained 8-point serial dilutions for 40 test compounds, plus 16 high- and 16 low controls. Liquid handling and incubation steps were done on an Innovadyne Nanodrop Express equipped with a robotic arm (Thermo CatX, Perkin Elmer/Caliper Twister II) and an incubator (Liconic STX40, Thermo Cytomat 2C450). The assay plates were prepared by addition of 50 nl per well of compound solution in 90% DMSO HummingBird nanodispenser (Zinsser Analytic). The assay was started by stepwise addition of 4.5 μl per well of bromo domain protein (50 mM HEPES, pH 7.5, 0.005% Tween20, 0.1% BSA, 50 mM NaCl, 45 nM His-Brd2(60-472) or 45 nM His-Brd3(20-477) or 45 nM His-Brd4(44-477) all proteins produced in-house) and 4.5 μl per well of peptide solution (50 mM HEPES, pH 7.5, 0.005% Tween20, 0.1% BSA, 50 mM NaCl, 60 nM acetyl-histone H4 (AcK 5, 8, 12, 16) (Biosyntan GmbH)). Reactions were incubated at 30° C. for 35 minutes. […] After 35 minutes incubation at 30° C., plates were measured in a Perkin Elmer EnVision multilabel reader. Concentrations causing 50% inhibition (IC50 values) were determined from percent inhibition values at different compound concentrations by non-linear regression analysis.
as §2, §3, §4
(§9) Master plates: 30 μL of individual compound dilutions including standard compound and controls of the 4 “pre-dilution plates” were transferred into a 384 “master plate” including the following concentrations 10000, 3003, 1000, 300, 100, 30, 10 and 3 μM, respectively in 90% of DMSO.
(§10) Assay plates: Identical “assay plates” were then prepared by pipetting 50 nL each of compound dilutions of the “master plates” into 384-well “assay plates” by means of a HummingBird 384-channel dispenser. These plates were used directly for the assay which was performed in a total volume of 13.55 μL. This led to a final compound concentration of 37, 11, 3.7, 1.1, 0.37, 0.11, 0.037 and 0.011 μM and a final DMSO concentration of 0.37% in the assay.

[1] = target: CREBBP bromodomain (His-CREBBP(1081-1197)) (Homo sapiens (Human), UniProt Q92793); experiment: AlphaScreen in-vitro binding assay for CREBBP; conditions: AlphaScreen, acetyl-histone H4 peptide; read-out: CREBBP IC50
Chain of CREBBP bromodomain (His-CREBBP(1081-1197)) (Q92793 1081-1197): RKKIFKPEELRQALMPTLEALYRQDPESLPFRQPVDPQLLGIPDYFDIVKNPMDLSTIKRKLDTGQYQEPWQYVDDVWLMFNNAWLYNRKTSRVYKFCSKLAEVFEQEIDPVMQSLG
Procedure: AlphaScreen In-Vitro Binding Assay for CREBBP
In order to assess bromodomain selectivity, we set up a binding assay using the bromodomain encoded by the CREBBP gene. […] Reactions were incubated at 30° C. for 35 minutes. Subsequently 4.5 μl per well detection mix (50 mM HEPES, pH 7.5, 0.005% Tween20, 0.02% BSA, 150 mM NaCl, 45 μg/ml Ni-chelate acceptor beads, 45 μg/ml streptavidin-donor beads) (Perkin Elmer)) were added. After 60 minutes incubation at room temperature, plates were measured in a Perkin Elmer EnVision multilabel reader. IC50 values were determined from percent inhibition values at different compound concentrations by non-linear regression analysis.
as §2, §3, §4, §5

THP-1 cells = experiment: Cell growth inhibition assay (CellTiter-Glo), THP-1; format: cell-based, human; conditions: THP-1, 4 days; for GI50: Homo sapiens, 96 h, half-maximal growth inhibition; for THP-1 TGI: total growth inhibition
Procedure: as §6, §7

MV-4-11 cells = experiment: Cell growth inhibition assay (CellTiter-Glo), MV-4-11; format: cell-based, human; conditions: MV-4-11, 4 days; for GI50: Homo sapiens, MV4-11, 96 h, half-maximal growth inhibition; for MV-4-11 TGI: total growth inhibition
Procedure: as §6, §7

BRD4 (His-Brd4(44-477)) = BRD4 (His-Brd4(44-477)) (Homo sapiens (Human), UniProt O60885); experiment: TR-FRET in-vitro binding assay for BRD4; conditions: acetyl-histone H4 peptide
Procedure: as §1, §8, §2, §3, §4, §9, §10

Chain of BRD3 (His-Brd3(20-477)) (Q15059 20-477): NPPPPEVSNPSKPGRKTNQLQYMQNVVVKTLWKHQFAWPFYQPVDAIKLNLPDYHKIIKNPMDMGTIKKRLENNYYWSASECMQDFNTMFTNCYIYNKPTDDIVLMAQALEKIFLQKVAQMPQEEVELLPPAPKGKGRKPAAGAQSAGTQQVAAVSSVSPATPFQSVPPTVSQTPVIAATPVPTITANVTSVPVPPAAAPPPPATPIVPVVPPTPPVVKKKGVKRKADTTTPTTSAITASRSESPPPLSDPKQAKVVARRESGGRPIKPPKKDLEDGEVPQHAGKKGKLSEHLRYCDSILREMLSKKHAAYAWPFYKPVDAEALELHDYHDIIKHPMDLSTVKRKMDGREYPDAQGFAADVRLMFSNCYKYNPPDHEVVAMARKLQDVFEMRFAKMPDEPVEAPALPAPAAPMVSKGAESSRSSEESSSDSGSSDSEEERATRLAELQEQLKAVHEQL

IC50 (BRD3 (His-Brd3(20-477))) [nM] | GI50 (K-562 cells) [nM] | IC50 (BRD2 (His-Brd2(60-472))) [nM] | IC50 [1] [nM] | GI50 (THP-1 cells) [nM] | GI50 (MV-4-11 cells) [nM] | IC50 (BRD4 (His-Brd4(44-477))) [nM] | Compound | K-562 TGI (K-562 cells) [nM] | THP-1 TGI (THP-1 cells) [nM] | MV-4-11 TGI (MV-4-11 cells) [nM]
31 | 106 | 42 | 12200 | 40.5 | 17.5 | 32 | COc1ncccc1-c1nn(C)c2c1C(=O)N(c1cc(C)c3nnc(C)n3c1)C2c1ccc(Cl)cc1 (racemic) [Example 12, 6-(4-chlorophenyl)-5-(3,8-dimethyl-[1,2,4]triazolo[4,3-a]pyridin-6-yl)-3-(2-methoxypyridin-3-yl)-1-methyl-5,6-dihydropyrrolo[3,4-c]pyrazol-4(1H)-one] | >10000 | 97.35 | 37.8
25 | 58.4 | 29 | 9400 | 14.7 | 5.23 | 23 | Cc1cc(N2C(=O)c3c(C4CC4)nn(C[C@@H](O)C(F)(F)F)c3[C@H]2c2ccc(Cl)cc2)cn2c(C)nnc12 [Example 19, (R)-6-(4-chlorophenyl)-3-cyclopropyl-5-(3,8-dimethyl-[1,2,4]triazolo[4,3-a]pyridin-6-yl)-1-((R)-3,3,3-trifluoro-2-hydroxypropyl)-5,6-dihydropyrrolo[3,4-c]pyrazol-4(1H)-one] | >10000 | 36.6 | 11.3
 | 24.8 |  | 4800 | 7.29 | 4.71 |  | Cc1cc(N2C(=O)c3c(C4CC4)nn(C)c3C2c2ccc(Cl)cc2)cc2c1nnn2C (racemic) [Example 8, 6-(4-chlorophenyl)-3-cyclopropyl-5-(1,4-dimethyl-1H-benzo[d][1,2,3]triazol-6-yl)-1-methyl-5,6-dihydropyrrolo[3,4-c]pyrazol-4(1H)-one] | >10000 | 17.6 | 9.53

Further lines, the compound ahead of its results:

Compound | IC50 (BRD3 (His-Brd3(20-477))) [nM] | GI50 (K-562 cells) [nM] | IC50 (BRD2 (His-Brd2(60-472))) [nM] | IC50 [1] [nM] | GI50 (THP-1 cells) [nM] | GI50 (MV-4-11 cells) [nM] | IC50 (BRD4 (His-Brd4(44-477))) [nM] | K-562 TGI (K-562 cells) [nM] | THP-1 TGI (THP-1 cells) [nM] | MV-4-11 TGI (MV-4-11 cells) [nM]
Cc1cc(N2C(=O)c3c(C4CC4)nn(-c4ccnn4C)c3C2c2ccc(Cl)cc2)cc2c1nnn2C (stereo not shown) [Example 21, 6-(4-chlorophenyl)-3-cyclopropyl-5-(1,4-dimethyl-1H-benzo[d][1,2,3]triazol-6-yl)-1-(1-methyl-1H-pyrazol-5-yl)-5,6-dihydropyrrolo[3,4-c]pyrazol-4(1H)-one] | 23 | 78.8 | 31 | 6600 | 22.3 | 13.5 | 17 | >10000 | 44.45 | 27.25
COc1ncccc1-c1nn(C)c2c1C(=O)N(c1cc(C)c3nnc(C)n3c1)[C@@H]2c1ccc(Cl)cc1 [Example 13, (R)-6-(4-chlorophenyl)-5-(3,8-dimethyl-[1,2,4]triazolo[4,3-a]pyridin-6-yl)-3-(2-methoxypyridin-3-yl)-1-methyl-5,6-dihydropyrrolo[3,4-c]pyrazol-4(1H)-one] | 22 | 96.5 | 34 | 5400 | 28.4 | 14.2 | 24 | >10000 | 64.65 | 29.8
COc1cc(N2C(=O)c3c(C4CC4)nn(C)c3C2c2ccc(Cl)cc2)cn2c(C(F)F)nnc12 (stereo not shown) [Example 22, 6-(4-chlorophenyl)-3-cyclopropyl-5-(3-(difluoromethyl)-8-methoxy-[1,2,4]triazolo-[4,3-a]pyridin-6-yl)-1-methyl-5,6-dihydropyrrolo[3,4-c]pyrazol-4(1H)-one] | 230 | 1180 | 210 | > 37000 | 814 | 266 | 130 | >10000 | 1330 | 574
Cc1cc(N2C(=O)c3c(C4CC4)nn(C)c3[C@H]2c2ccc(Cl)cc2)cc2c1nnn2C [Example 9, (R)-6-(4-chlorophenyl)-3-cyclopropyl-5-(1,4-dimethyl-1H-benzo[d][1,2,3]triazol-6-yl)-1-methyl-5,6-dihydropyrrolo[3,4-c]pyrazol-4(1H)-one] |  | 14.3 |  | 3200 | 4.41 | 2.57 |  | >10000 | 10.76 | 5.745
